This assay relates to HIV-1 NL4-3 viral clone expressing Renilla luciferase. The experiment in a line: microbe, parasite or virus in culture. It is filed as cell-based. To be noted: Human immunodeficiency virus 1, NL43, MT2, 96 h. The protocol: Protocol for MT-2 Spread Assay
The present assay was used to screen candidate antiviral compounds by quantification of virus spread and production over several rounds of infection in vitro. MT-2, a HIV-1 permissive human T-cell line, was seeded in microtiter plates and was simultaneously treated with serially diluted compound and inoculated with a HIV-1 NL4-3 viral clone engineered to express Renilla luciferase in place of Net Following treatment, the culture was incubated for 96 hours. After the incubation, media was collected and used to estimate relative infectivity on the indicator cell line, TZM-bl. Additionally, viral spread was quantified by measuring luciferase activity via a commercially available luciferase substrate. In parallel, MT-2 cells were seeded and inoculated with mock virus in the presence of serially diluted compound. Compound toxicity was quantified 96 hours after treatment with AlamarBlue.
MT-2 (NIH Aids reagent program 237) cells were grown and maintained in an incubator at 37° C. with 5% CO2 using a basal medium of RPMI-1640 supplemented with 10% FBS. Cells were seeded in 100 μl at 2×10^4 cells/well in white walled 96-well microtiter plates. Candidate compounds were 3-fold serially diluted in the appropriate solvent. Solvent without compound was used as a no drug reference. Cells were inoculated at a multiplicity of 0.027 with an HIV-1 NL4-3 virus stock engineered to express Renilla luciferase in place of Net Diluted virus stock was first added to serially diluted compound. Compound and virus were delivered to cells in an equal volume (100 μl) and treated cultures were returned to the incubator for 96 hours. In parallel, plates for cytotoxicity estimates were prepared in the same way except cells were plated in clear walled 96-well microtiter plates and were mock infected.
At 96 hours post infection, 100 μl virus containing culture supernatant was collected from the treated and infected cultures and serially diluted in DMEM supplemented with 10% FBS, 1% sodium pyruvate, and 20 μg/ml DEAE dextran. One day prior, TZM-bl (ATCC PTA-5659) were cultured in basal medium of DMEM supplemented with 10% FBS and 1% sodium pyruvate and seeded at 7.5×10^3 cells/well in black walled 96-well microtiter plates. Diluted virus containing culture supernatant was transferred to TZM-bl cultures and incubated for 48 hours at 37° C. with 5% CO2. Infected TZM-bl cultures were fixed for 5 minutes with a 1% formaldehyde/0.2% gluteraldehyde/PBS solution then washed three times with PBS. Fixed cultures were incubated at 37° C. for 25 minutes with a 200 μg/ml MUG (4-Methylumbelliferyl β-D-[…])/DMEM solution. The reaction was stopped with an equal volume of 1M sodium carbonate and read at 360, 449 nm on fluorescence plate reader (Biotek).
At 96 hours post infection, 100 μl of culture supernatant was removed from the treated and infected cultures and EnduRen live cell substrate (Promega) was added at a final concentration 1.3 μg/ml. Cells were incubated for 1.5 hours at 37° C. with 5% CO2 then read on a luminescence plate reader (Biotek).
For all assays, data was imported into Accelrys Assay Explorer 3.3. In Assay Explorer, % inhibition (antiviral or cytotoxicity) was calculated using the solvent control as a reference by the following equation: 1−(SignalCompound/SignalReference). The % Inhibition and compound concentration data was fitted using the following 4-parameter logistic model (Assay Explorer model 42):
[formula] where X is compound concentration, Y is % inhibition, D is the maximum % Inhibition (constrained to 100%), C is IC50 value or inflection point, B is the hill slope, and A is the minimum % inhibition (constrained to 0%). The IC50 value is reported as the EC50 or CC50 depending on the assay endpoint. EC50 represents the effective concentration at which virus replication is inhibited by 50 percent. CC50 represents the concentration that results in the death of 50 percent of the host cells. […]

This note sets out measurements from patent US10195189B2, “2-phenethenyltetrahydro isoquinolines useful as anti-HIV compounds” (priority 2014, dated 2019).

On to `COc1cc2c(cc1OCc1ccccc1)CCNC2/C=C/c1sccc1C` (stereo not shown) [BS, 6-Benzyloxy-7-methoxy-1-[(E)-2-(3-methyl-2-thienyl)vinyl]-1,2,3,4-tetrahydroisoquinoline], for which the midpoint of the response, the EC50, lay at 2870 nM. Turning to `COc1cc(F)c(/C=C/C2NCCc3cc(OCc4ccccc4)c(OC)cc32)c(F)c1` (stereo not shown) [BU, 6-Benzyloxy-1-[(E)-2-(2,6-difluoro-4-methoxy-phenyl)vinyl]-7-methoxy-1,2,3,4-tetrahydroisoquinoline], the EC50 (as a rule, the concentration needed to bring the measured effect to its halfway point) was 1020 nM. Compared with the last molecule, the EC50 is about 2.8-fold lower. As for `COc1cc(C)c(/C=C/C2NCCc3cc(OCc4ccccc4)c(OC)cc32)cc1C` (stereo not shown) [BV, 6-Benzyloxy-7-methoxy-1-[(E)-2-(4-methoxy-2,5-dimethyl-phenyl)vinyl]-1,2,3,4-tetrahydroisoquinoline], the figure is 304 nM; as for `COc1cc2c(cc1OCc1ccccc1)CCNC2/C=C/c1cc(C(C)C)c(OC)cc1C` (stereo not shown) [BW, 6-Benzyloxy-1-[(E)-2-(5-isopropyl-4-methoxy-2-methyl-phenyl)vinyl]-7-methoxy-1,2,3,4-tetrahydroisoquinoline], 840 nM; as for `COc1cc2c(cc1OCc1ccccc1)CCNC2/C=C/c1cc(OCC(C)(C)C)c(OC)cc1C` (stereo not shown) [BX, 6-Benzyloxy-1-[(E)-2-[5-(2,2-dimethylpropoxy)-4-methoxy-2-methyl-phenyl]vinyl]-7-methoxy-1,2,3,4-tetrahydroisoquinoline], 350 nM. In the case of `COc1cc2c(cc1OCc1ccccc1)CCNC2/C=C/c1cc(OCC2CCNCC2)c(OC)cc1C` (stereo not shown) [BY, 6-Benzyloxy-7-methoxy-1-[(E)-2-[4-methoxy-2-methyl-5-(4-piperidylmethoxy)phenyl]vinyl]-1,2,3,4-tetrahydroisoquinoline], the 50% effective concentration (EC50) is 397 nM. Take `COc1cc2c(cc1OCc1ccccc1)CCNC2/C=C/c1ccc(S(C)(=O)=O)cc1` (stereo not shown) [BZ, 6-Benzyloxy-7-methoxy-1-[(E)-2-(4-methylsulfonylphenyl)vinyl]-1,2,3,4-tetrahydroisoquinoline]: the response was half-maximal at 1000 nM (EC50). As for `COc1ccc(/C=C/C2NCCc3cc(OCc4ccccc4)c(OC)cc32)c(OC)n1` (stereo not shown) [CA, 6-Benzyloxy-1-[(E)-2-(2,6-dimethoxy-3-pyridyl)vinyl]-7-methoxy-1,2,3,4-tetrahydroisoquinoline], the figure is 640 nM; as for `COc1cc2c(cc1OCc1ccccc1)CCNC2/C=C/c1ccc2c(c1)CCCO2` (stereo not shown) [CB, 6-Benzyloxy-1-[(E)-2-chroman-6-ylvinyl]-7-methoxy-1,2,3,4-tetrahydroisoquinoline], 1550 nM. Consider `COc1cc2c(cc1OCc1ccccc1)CCNC2/C=C/c1c(C)ccc2c1OCCC2` (stereo not shown) [CC, 6-Benzyloxy-7-methoxy-1-[(E)-2-(7-methylchroman-8-yl)vinyl]-1,2,3,4-tetrahydroisoquinoline], for which it took 1180 nM to reach a half-maximal effect (EC50). The molecule `COc1cc(C)c(/C=C/C2NCCc3cc(OCc4ccccc4)c(OC)cc32)cc1OCCCCN=[N+]=[N-]` (stereo not shown) [CD, 1-[(E)-2-[5-(4-azidobutoxy)-4-methoxy-2-methyl-phenyl]vinyl]-6-benzyloxy-7-methoxy-1,2,3,4-tetrahydroisoquinoline] displayed a concentration giving a half-maximal response (EC50) of 88 nM. In turn, `COc1cc2c(cc1OCc1ccccc1)CCNC2/C=C/c1cc2c(cc1C)OCCC2` (stereo not shown) [CE, 6-Benzyloxy-7-methoxy-1-[(E)-2-(7-methylchroman-6-yl)vinyl]-1,2,3,4-tetrahydroisoquinoline] registered a 50% effective concentration (EC50) of 125 nM. This EC50 and that of the molecule before are within 1.5-fold of each other. In the case of `COc1cc2c(cc1OCc1ccccc1)CCNC2/C=C/c1cccc2c1OCCC2` (stereo not shown) [CF, 6-Benzyloxy-1-[(E)-2-chroman-8-ylvinyl]-7-methoxy-1,2,3,4-tetrahydroisoquinoline], it took 490 nM to reach a half-maximal effect (EC50). `COc1cc2c(cc1OCc1ccccc1)CCNC2/C=C/c1cc2c(cc1C)OCC2` (stereo not shown) [CG, 6-Benzyloxy-7-methoxy-1-[(E)-2-(6-methyl-2,3-dihydrobenzofuran-5-yl)vinyl]-1,2,3,4-tetrahydroisoquinoline] showed a 50% effective concentration (EC50) of 140 nM. The molecule `COc1cc2c(cc1OCc1ccccc1)CCNC2/C=C/c1cc2ccccc2n1C(=O)OC(C)(C)C` (stereo not shown) [CH, tert-Butyl 2-[(E)-2-(6-benzyloxy-7-methoxy-1,2,3,4-tetrahydroisoquinolin-1-yl)vinyl]indole-1-carboxylate] displayed an EC50 of 580 nM. As for `COc1cc2c(cc1OCc1ccccc1)CCNC2/C=C/c1cn(C(=O)OC(C)(C)C)c2ccccc12` (stereo not shown) [CI, tert-Butyl 3-[(E)-2-(6-benzyloxy-7-methoxy-1,2,3,4-tetrahydroisoquinolin-1-yl)vinyl]indole-1-carboxylate], the figure is 230 nM; as for `COc1cc2c(cc1OCc1ccccc1)CCNC2/C=C/c1c[nH]c2ccccc12` (stereo not shown) [CJ, 6-Benzyloxy-1-[(E)-2-(1H-indol-3-yl)vinyl]-7-methoxy-1,2,3,4-tetrahydroisoquinoline], 470 nM.

`CCOC(=O)CCCOc1cc(/C=C/C2NCCc3cc(OCc4ccccc4)c(OC)cc32)ccc1OC` (stereo not shown) [CV, Ethyl 4-[5-[(E)-2-(6-benzyloxy-7-methoxy-1,2,3,4-tetrahydroisoquinolin-1-yl)vinyl]-2-methoxy-phenoxy]butanoate] had a concentration giving a half-maximal response (EC50) of 100 nM. To `COc1cc2c(cc1OCc1ccccc1)CCNC2/C=C/c1ccccc1NC(=O)OC(C)(C)C` (stereo not shown) [CW, tert-Butyl N-[2-[(E)-2-(6-benzyloxy-7-methoxy-1,2,3,4-tetrahydroisoquinolin-1-yl)vinyl]phenyl]carbamate] belongs 5400 nM; to `COc1cc2c(cc1OCc1ccccc1)CCNC2/C=C/c1ccccc1N` (stereo not shown) [CX, 2-[(E)-2-(6-benzyloxy-7-methoxy-1,2,3,4-tetrahydroisoquinolin-1-yl)vinyl]aniline], 1400 nM. On to `COc1cc2c(cc1OCc1ccccc1)CCNC2/C=C/c1ccc(OC)c(C(F)(F)F)c1` (stereo not shown) [CY, (E)-6-(Benzyloxy)-7-methoxy-1-(4-methoxy-3-(trifluoromethyl)styryl)-1,2,3,4-tetrahydroisoquinoline], for which the EC50 was found to be 697 nM.

`COc1cc2c(cc1OCc1ccccc1)CCNC2/C=C/c1cc(C)c(OC)c(C(F)(F)F)c1` (stereo not shown) [CZ, (E)-6-(benzyloxy)-7-methoxy-1-(4-methoxy-3-methyl-5-(trifluoromethyl)styryl)-1,2,3,4-tetrahydroisoquinoline] had an EC50 of 2190 nM. As for `COc1cc2c(cc1OCc1ccccc1)CCNC2/C=C/c1ccccc1C(F)(F)F` (stereo not shown) [DA, (E)-6-(benzyloxy)-7-methoxy-1-(2-(trifluoromethyl)styryl)-1,2,3,4-tetrahydroisoquinoline], the figure is 2340 nM; as for `COc1cc2c(cc1OCc1ccccc1)CCNC2/C=C/c1cccc(C(F)(F)F)c1` (stereo not shown) [DB, (E)-6-(benzyloxy)-7-methoxy-1-(3-(trifluoromethyl)styryl)-1,2,3,4-tetrahydroisoquinolin], 2670 nM; as for `COc1cc2c(cc1OCc1ccccc1)CCNC2/C=C/c1ccccc1N(C)C` (stereo not shown) [DC, (E)-2-(2-(6-(benzyloxy)-methoxy-1,2,3,4-tetrahydroisoquinolin-1-yl)vinyl)-N,N-dimethylamine], 830 nM. The molecule `COCCOc1ccccc1/C=C/C1NCCc2cc(OCc3ccccc3)c(OC)cc21` (stereo not shown) [DE, (E)-6-(benzyloxy)-7-methoxy-1-(2-(2-methoxyethoxy)styryl)-1,2,3,4-tetrahydroisoquinoline] yielded an EC50 of 1440 nM. Against the preceding molecule, the EC50 is about 1.7-fold higher.

Take `COc1cc2c(cc1OCc1ccccc1)CCNC2/C=C/c1ccc2c(c1)OC(F)(F)O2` (stereo not shown) [DF, (E)-6-(benzyloxy)-1-(2-(2,2-difluorobenzo[d][1,3]dioxol-5-yl)vinyl)-7-methoxy-1,2,3,4-tetrahydroisoquinoline]: the EC50 came to 5440 nM. `COc1ccccc1/C=C/C1NCCc2cc(OCc3ccccc3)c(OC)cc21` (stereo not shown) [DG, (E)-6-(benzyloxy)-7-methoxy-1-(2-methoxystyryl)-1,2,3,4-tetrahydroisoquinoline] came in with a 50% effective concentration (EC50) of 2200 nM. Compared with the last molecule, the EC50 is about 2.5-fold lower.
